The values that follow come from patent US10457687B2, “Aminoacid derivatives, a process for their preparation and pharmaceutical compositions containing them” (LES LABORATOIRES SERVIER, priority 2015, dated 2019).

One experiment has as its target Mcl-1 protein (Homo sapiens, UniProt Q07820). Briefly: Inhibition of Mcl-1 by the fluorescence polarisation technique (Method 1 or Method 2). The format is binding. As to conditions: for IC50: fluorescence polarisation, Fluorescein labelled ligand, Method 1 (not underlined) or Method 2 (underlined), read-out: IC50 (μM) Mcl-1 FP; for percentage fluorescence polarisation inhibition, Mcl-1 FP: partial inhibitors, @ 10 μM test compound. The method, boiled down:
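Binding measured by FP, with Mcl-1 protein and fluorescein-labelled ligand mixed with compounds in an 11-point series at 5% final DMSO. Method 2 used 10 nM each of protein and ligand in phosphate buffer (20 mM Na2HPO4, 1 mM EDTA, 50 mM NaCl, pH 7.4); Method 1 used 5 nM protein, 1 nM ligand in HEPES buffer (10 mM HEPES, 150 mM NaCl, 0.05% Tween 20, pH 7.4).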
For orientation: Polarisation of emitted light reports the rotation of a fluorescent probe.

In experiment [1] the test system is H929 multiple myeloma tumour line. Put plainly: In vitro cytotoxicity, MTT assay, 48 hours. It is filed as cell-based. As to conditions: H929 cells, 48 hours exposure, cell viability. The method, then:
The cytotoxicity studies were carried out on the H929 multiple myeloma tumour line.
The cells are distributed onto microplates and exposed to the test compounds for 48 hours.
(Formazan colour is commonly taken as a measure of viable cells.)

Chain of Mcl-1 protein (Q07820 whole entry): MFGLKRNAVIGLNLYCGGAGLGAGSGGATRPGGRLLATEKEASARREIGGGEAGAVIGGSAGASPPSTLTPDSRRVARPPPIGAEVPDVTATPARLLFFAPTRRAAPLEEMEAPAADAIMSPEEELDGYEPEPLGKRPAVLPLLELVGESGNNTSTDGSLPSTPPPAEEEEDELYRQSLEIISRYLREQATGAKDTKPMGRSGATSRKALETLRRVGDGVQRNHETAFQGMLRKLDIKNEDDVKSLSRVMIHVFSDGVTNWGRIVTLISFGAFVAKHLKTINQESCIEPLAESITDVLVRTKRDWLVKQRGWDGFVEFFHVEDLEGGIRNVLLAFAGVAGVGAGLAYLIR

`Cc1c(-c2c(-c3ccc(F)cc3)sc3ncnc(NC(Cc4ccccc4OCc4ccnc(-c5ccccc5F)n4)C(=O)O)c23)ccc(OCCN(C)C)c1Cl` [Example 50, N-[(5Sa)-5-{3-chloro-4-[2-(dimethylamino)ethoxy]-2-methylphenyl}-6-(4-fluorophenyl)thieno[2,3-d]pyrimidin-4-yl]-2-{[2-(2-fluorophenyl)pyrimidin-4-yl]methoxy}-D-phenylalanine]: the IC50 – broadly, the concentration that gives 50% inhibition – was 0.007 µM at Mcl-1 protein and > 150 nM in experiment [1] (Homo sapiens, NCI-H929).
In the case of `Cc1c(-c2c(-c3ccc(F)cc3)sc3ncnc(NC(Cc4ccccc4OCc4ccnn4C)C(=O)O)c23)ccc(OCCN2CCN(C)CC2)c1Cl` [Example 3, N-[(5Sa)-5-{3-chloro-2-methyl-4-[2-(4-methylpiperazin-1-yl)ethoxy]phenyl}-6-(4-fluorophenyl)thieno[2,3-d]pyrimidin-4-yl]-2-[(1-methyl-1H-pyrazol-5-yl)methoxy]-D-phenylalanine], the IC50 amounted to 0.114 µM at Mcl-1 protein and 318 nM in experiment [1] (Homo sapiens, NCI-H929).
For `Cc1c(-c2c(-c3ccco3)sc3ncnc(NC(Cc4ccccc4OCc4ccccn4)C(=O)O)c23)ccc(OCCN2CCN(C)CC2)c1Cl` [Example 12, N-[(5Sa)-5-{3-chloro-2-methyl-4-[2-(4-methylpiperazin-1-yl)ethoxy]phenyl}-6-(furan-2-yl)thieno[2,3-d]pyrimidin-4-yl]-2-(pyridin-2-ylmethoxy)-D-phenylalanine], the IC50 worked out at 0.014 µM on Mcl-1 protein and 647 nM in experiment [1] (Homo sapiens, NCI-H929).
In the same order, the values of `COc1ccccc1-c1nccc(COc2ccccc2C[C@@H](Nc2ncnc3sc(-c4ccc(F)cc4)c(-c4c(C)c(Cl)c(OCCN5CCN(C)CC5)c(Cl)c4C)c23)C(=O)O)n1` [Example 270, N-[5-{3,5-dichloro-2,6-dimethyl-4-[2-(4-methylpiperazin-1-yl)ethoxy]phenyl}-6-(4-fluorophenyl)thieno[2,3-d]pyrimidin-4-yl]-2-{[2-(2-methoxyphenyl)pyrimidin-4-yl]methoxy}-D-phenylalanine] are 0.055 µM and 522 nM.
Regarding `Cc1c(-c2c(-c3ccsc3)sc3ncnc(NC(Cc4ccccc4CN)C(=O)O)c23)ccc(OCCN2CCOCC2)c1Cl` [Example 38, 2-(aminomethyl)-N-[(5Sa)-5-{3-chloro-2-methyl-4-[2-(morpholin-4-yl)ethoxy]phenyl}-6-(thiophen-3-yl)thieno[2,3-d]pyrimidin-4-yl]-D-phenylalanine], the IC50 is 1.87 µM at Mcl-1 protein and > 3750 nM in experiment [1] (Homo sapiens, NCI-H929).
Turning to `COc1ccccc1-c1nccc(COc2ccccc2CC(Nc2ncnc3sc(-c4ccc(F)o4)c(-c4ccc(OCCN5CCN(C)CC5)c(Cl)c4C)c23)C(=O)O)n1` [Example 27, N-[(5Sa)-5-{3-chloro-2-methyl-4-[2-(4-methylpiperazin-1-yl)ethoxy]phenyl}-6-(5-fluorofuran-2-yl)thieno[2,3-d]pyrimidin-4-yl]-2-{[2-(2-methoxyphenyl)pyrimidin-4-yl]methoxy}-D-phenylalanine], the IC50 at Mcl-1 protein turned out to be 0.011 µM; in experiment [1] (Homo sapiens, NCI-H929), 2.09 nM.
Regarding `Cc1c(-c2c(-c3ccsc3)sc3ncnc(N[C@H](CC4CCCCC4)C(=O)O)c23)ccc(OCCN2CCN(C)CC2)c1Cl` [Example 31, N-[(5Ra)-5-{3-chloro-2-methyl-4-[2-(4-methylpiperazin-1-yl)ethoxy]phenyl}-6-(thiophen-3-yl)thieno[2,3-d]pyrimidin-4-yl]-3-cyclohexyl-D-alanine], the “percentage fluorescence polarisation inhibition, Mcl-1 FP” value on Mcl-1 protein amounted to 16.7% @ 10 μM. The IC50 in experiment [1] is > 3750 nM.
As for `Cc1c(-c2c(-c3ccsc3)sc3ncnc(NC(CC4CCCCC4)C(=O)O)c23)ccc(OCCN2CCN(C)CC2)c1Cl` [Example 32, N-[(5Sa)-5-{3-chloro-2-methyl-4-[2-(4-methylpiperazin-1-yl)ethoxy]phenyl}-6-(thiophen-3-yl)thieno[2,3-d]pyrimidin-4-yl]-3-cyclohexyl-D-alanine], the IC50 at Mcl-1 protein was 0.007 µM; in experiment [1] (Homo sapiens, NCI-H929), > 3750 nM.
`Cc1c(-c2c(-c3ccsc3)sc3ncnc(N[C@H](Cc4ccccn4)C(=O)O)c23)ccc(OCCN2CCN(C)CC2)c1Cl` [Example 30, N-[(5Ra)-5-{3-chloro-2-methyl-4-[2-(4-methylpiperazin-1-yl)ethoxy]phenyl}-6-(thiophen-3-yl)thieno[2,3-d]pyrimidin-4-yl]-3-pyridin-2-yl-D-alanine]: on Mcl-1 protein, the “percentage fluorescence polarisation inhibition, Mcl-1 FP” value is given as 68.2% @ 10 μM. In experiment [1], the IC50 is > 3750 nM.
In the same order, the values of `Cc1c(-c2c(-c3ccsc3)sc3ncnc(NC(Cc4ccccc4CN)C(=O)O)c23)ccc(OCCN2CCOCC2)c1Cl` [Example 37, 2-(aminomethyl)-N-[(5Ra)-5-{3-chloro-2-methyl-4-[2-(morpholin-4-yl)ethoxy]phenyl}-6-(thiophen-3-yl)thieno[2,3-d]pyrimidin-4-yl]-D-phenylalanine] are 18.7% @ 10 μM and > 3750 nM.
On to `CCOc1nccc(COc2ccccc2CC(Nc2ncnc3sc(-c4ccc(F)cc4)c(-c4ccc(OCCN5CCN(C)CC5)c(Cl)c4C)c23)C(=O)O)n1` [Example 4, N-[(5Sa)-5-{3-chloro-2-methyl-4-[2-(4-methylpiperazin-1-yl)ethoxy]phenyl}-6-(4-fluorophenyl)thieno[2,3-d]pyrimidin-4-yl]-2-[(2-ethoxypyrimidin-4-yl)methoxy]-D-phenylalanine], for which the IC50 on Mcl-1 protein amounted to 0.005 µM; in experiment [1] (Homo sapiens, NCI-H929) it was 215 nM.
In the same order, the values of `Cc1c(-c2c(-c3ccc(F)o3)sc3ncnc(NC(Cc4ccccc4OCc4ccnn4C)C(=O)O)c23)ccc(OCCN2CCN(C)CC2)c1Cl` [Example 20, N-[(5Sa)-5-{3-chloro-2-methyl-4-[2-(4-methylpiperazin-1-yl)ethoxy]phenyl}-6-(5-fluorofuran-2-yl)thieno[2,3-d]pyrimidin-4-yl]-2-[(1-methyl-1H-pyrazol-5-yl)methoxy]-D-phenylalanine] are 0.026 µM and 78.6 nM.
The corresponding values for `Cc1c(-c2c(-c3ccsc3)sc3ncnc(NC(Cc4ccccc4F)C(=O)O)c23)ccc(OCCN2CCN(C)CC2)c1Cl` [Example 34, N-[(5Sa)-5-{3-chloro-2-methyl-4-[2-(4-methylpiperazin-1-yl)ethoxy]phenyl}-6-(thiophen-3-yl)thieno[2,3-d]pyrimidin-4-yl]-2-fluoro-D-phenylalanine] are 0.726 µM and 4270 nM.
On to `Cc1c(-c2c(-c3ccc(F)o3)sc3ncnc(N[C@H](Cc4ccccc4OCc4ccnc(OCC(F)(F)F)n4)C(=O)O)c23)ccc(OCCN2CCN(C)CC2)c1Cl` [Example 25, N-[(5Ra)-5-{3-chloro-2-methyl-4-[2-(4-methylpiperazin-1-yl)ethoxy]phenyl}-6-(5-fluorofuran-2-yl)thieno[2,3-d]pyrimidin-4-yl]-2-{[2-(2,2,2-trifluoroethoxy)pyrimidin-4-yl]methoxy}-D-phenylalanine], for which the “percentage fluorescence polarisation inhibition, Mcl-1 FP” value on Mcl-1 protein is on record as 55.5% @ 10 μM. Further, the IC50 in experiment [1] is > 600 nM.
For the molecule `CC#Cc1sc2ncnc(NC(Cc3ccccc3OCc3ccnc(N4CCOCC4)n3)C(=O)O)c2c1-c1ccc(OCCN(C)C)c(Cl)c1C` [Example 47, N-[(5Sa)-5-{3-chloro-4-[2-(dimethylamino)ethoxy]-2-methylphenyl}-6-(prop-1-yn-1-yl)thieno[2,3-d]pyrimidin-4-yl]-2-{[2-(morpholin-4-yl)pyrimidin-4-yl]methoxy}-D-phenylalanine], the IC50 on Mcl-1 protein came to 0.008 µM; in experiment [1] (Homo sapiens, NCI-H929), 83.9 nM.
Consider `COc1ccccc1C[C@@H](Nc1ncnc2sc(-c3ccc(F)cc3)c(-c3ccc(OCCN4CCN(C)CC4)c(Cl)c3C)c12)C(=O)O` [Example 2, N-[(5Ra)-5-{3-chloro-2-methyl-4-[2-(4-methylpiperazin-1-yl)ethoxy]phenyl}-6-(4-fluorophenyl)thieno[2,3-d]pyrimidin-4-yl]-2-methoxy-D-phenylalanine], for which the “percentage fluorescence polarisation inhibition, Mcl-1 FP” value on Mcl-1 protein is listed as 56.9% @ 10 μM. The IC50 in experiment [1] was > 600 nM.
In the same order, the values of `Cc1c(-c2c(-c3ccsc3)sc3ncnc(NC(Cc4ccccn4)C(=O)O)c23)ccc(OCCN2CCOCC2)c1Cl` [Example 35, N-[(5Ra)-5-{3-chloro-2-methyl-4-[2-(morpholin-4-yl)ethoxy]phenyl}-6-(thiophen-3-yl)thieno[2,3-d]pyrimidin-4-yl]-3-pyridin-2-yl-D-alanine] are 24.78% @ 10 μM and > 30000 nM.
Turning to `CCn1nccc1COc1ccccc1CC(Nc1ncnc2sc(-c3ccc(F)o3)c(-c3ccc(OCCN4CCN(C)CC4)c(Cl)c3C)c12)C(=O)O` [Example 21, N-[(5Sa)-5-{3-chloro-2-methyl-4-[2-(4-methylpiperazin-1-yl)ethoxy]phenyl}-6-(5-fluorofuran-2-yl)thieno[2,3-d]pyrimidin-4-yl]-2-[(1-ethyl-1H-pyrazol-5-yl)methoxy]-D-phenylalanine], the concentration for half-maximal inhibition (IC50) worked out at 0.006 µM at Mcl-1 protein and 39.7 nM in experiment [1] (Homo sapiens, NCI-H929).
The corresponding values for `CCCCn1nccc1COc1ccccc1CC(Nc1ncnc2sc(-c3ccc(F)cc3)c(-c3ccc(OCCN4CCN(C)CC4)c(Cl)c3C)c12)C(=O)O` [Example 6, 2-[(1-butyl-1H-pyrazol-5-yl)methoxy]-N-[(5Sa)-5-{3-chloro-2-methyl-4-[2-(4-methylpiperazin-1-yl)ethoxy]phenyl}-6-(4-fluorophenyl)thieno[2,3-d]pyrimidin-4-yl]-D-phenylalanine] are 0.013 µM and > 600 nM.
